# US20240398812A1 (Caraway Therapeutics, Inc., priority 2021, published 2024)
# Columns and labels:
# Format in all cases: cell-based
# [1] = biological target: human TRPML1 (Homo sapiens, UniProt Q9GZU1); assay: Fluorescent TRPML1 assay (Fluo4-AM calcium fluorescence, HEK-293 Trex cells)
# Method in brief: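 Tet-inducible HEK-293 Trex cells stably expressing surface-targeted mutant human TRPML1, induced with 0.5 ug/mL doxycycline overnight, loaded with Fluo4-AM and suspended in Ringer's with 10 mM calcium. Compounds tested from 20 μM to 6 nM final, half-log steps, in triplicate; fluorescence (ex 480/em 540) normalised to plate controls, EC50 by non-linear regression.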
# [2] = biological target: T1, TRPML2 (Homo sapiens, UniProt Q8IZK6); assay: Fluorescent TRPML2 assay (as for TRPML1)
# T1 construct: expressed in transfected cells
# T1 sequence (Q8IZK6 1-566): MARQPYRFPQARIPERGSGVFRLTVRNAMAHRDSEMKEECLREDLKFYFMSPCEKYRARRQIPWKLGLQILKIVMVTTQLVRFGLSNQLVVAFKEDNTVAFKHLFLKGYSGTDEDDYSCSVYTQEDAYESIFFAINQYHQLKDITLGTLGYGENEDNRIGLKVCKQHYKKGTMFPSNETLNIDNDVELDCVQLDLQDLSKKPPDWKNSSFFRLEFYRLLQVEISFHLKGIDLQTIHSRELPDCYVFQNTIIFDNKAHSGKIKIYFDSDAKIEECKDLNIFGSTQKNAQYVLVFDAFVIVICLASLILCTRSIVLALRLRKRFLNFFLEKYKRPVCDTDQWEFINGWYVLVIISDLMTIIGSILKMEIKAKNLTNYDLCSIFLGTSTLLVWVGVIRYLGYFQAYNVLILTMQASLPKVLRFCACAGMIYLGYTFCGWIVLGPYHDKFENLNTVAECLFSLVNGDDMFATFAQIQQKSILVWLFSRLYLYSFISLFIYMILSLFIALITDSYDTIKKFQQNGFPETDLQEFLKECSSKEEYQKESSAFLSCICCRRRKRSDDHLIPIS
# Method in brief: (§1)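 HEK-293 Trex cells with tet-inducible (0.5 ug/mL doxycycline, overnight) surface-targeted mutant channel, Fluo4-AM loaded, suspended in Ringer's with 10 mM calcium. Compounds tested 20 µM to 6 nM final, half-log steps, triplicate; fluorescence at ex 480/em 540 nm. EC50 by non-linear regression of percent activity versus plate controls.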
# [3] = biological target: T2, TRPML3 (Homo sapiens, UniProt Q8TDD5); assay: Fluorescent TRPML3 assay (as for TRPML1)
# T2 construct: expressed in transfected cells
# T2 sequence (Q8TDD5 1-553): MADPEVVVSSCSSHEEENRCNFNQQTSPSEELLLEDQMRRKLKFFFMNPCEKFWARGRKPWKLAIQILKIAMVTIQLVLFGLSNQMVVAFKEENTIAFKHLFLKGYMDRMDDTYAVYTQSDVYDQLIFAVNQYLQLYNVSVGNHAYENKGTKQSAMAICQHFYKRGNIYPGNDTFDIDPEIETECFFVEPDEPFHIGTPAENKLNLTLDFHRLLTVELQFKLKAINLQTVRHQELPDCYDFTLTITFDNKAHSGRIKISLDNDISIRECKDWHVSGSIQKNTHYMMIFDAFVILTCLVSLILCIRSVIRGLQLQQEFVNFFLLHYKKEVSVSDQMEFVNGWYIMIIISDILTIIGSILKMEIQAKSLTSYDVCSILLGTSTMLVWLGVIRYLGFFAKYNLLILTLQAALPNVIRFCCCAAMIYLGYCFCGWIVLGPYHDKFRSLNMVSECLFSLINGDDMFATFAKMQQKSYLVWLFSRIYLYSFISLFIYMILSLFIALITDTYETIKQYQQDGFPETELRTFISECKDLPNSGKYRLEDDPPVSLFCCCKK
# Method in brief: as §1
# human TRPML1, sequence (Q9GZU1 whole entry L15A/L16A/L577A/L578A, form open): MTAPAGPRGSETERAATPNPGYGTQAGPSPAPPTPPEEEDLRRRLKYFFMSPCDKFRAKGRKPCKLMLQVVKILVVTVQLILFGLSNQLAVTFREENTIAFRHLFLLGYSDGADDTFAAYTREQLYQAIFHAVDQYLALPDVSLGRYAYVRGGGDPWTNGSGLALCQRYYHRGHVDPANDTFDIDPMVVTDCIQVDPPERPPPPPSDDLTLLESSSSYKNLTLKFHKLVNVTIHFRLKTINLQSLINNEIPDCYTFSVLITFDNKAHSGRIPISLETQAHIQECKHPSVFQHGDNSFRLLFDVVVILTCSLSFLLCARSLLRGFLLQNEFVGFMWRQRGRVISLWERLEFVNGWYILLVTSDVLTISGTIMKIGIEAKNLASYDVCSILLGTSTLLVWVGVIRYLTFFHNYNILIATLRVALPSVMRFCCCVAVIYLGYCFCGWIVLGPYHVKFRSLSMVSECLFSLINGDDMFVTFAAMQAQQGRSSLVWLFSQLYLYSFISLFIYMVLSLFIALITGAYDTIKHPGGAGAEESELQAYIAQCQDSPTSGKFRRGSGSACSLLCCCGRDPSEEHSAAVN
smiles,measurement,setting,value
"C[C@H]1CN(C(=O)CC(C)(C)C(F)(F)F)CCN1c1ncnc2c1c(C1CC1)cn2-c1cc(C#N)ccn1 [Compound 141, (S)-2-(5-cyclopropyl-4-(2-methyl-4-(4,4,4-trifluoro-3,3-dimethylbutanoyl)piperazin-1-yl)-7H-pyrrolo[2,3-d]pyrimidin-7-yl)isonicotinonitrile]",EC50,"[1]; Table 3, compounds 101-177",< 100 nM
same,EC50,"[2]; Table 3, compounds 101-177",100 to 500 nM
same,EC50,"[3]; Table 3, compounds 101-177",< 100 nM
"C[C@H]1CN(C(=O)[C@H](F)C(C)(C)C)CCN1c1ncnc2c1c(C1CC1)cn2-c1cc(C#N)ccn1 (single isomer, unassigned) [Compound 202]",EC50,"[1]; Table 3, compounds 201-283",< 100 nM
same,EC50,"[2]; Table 3, compounds 201-283",< 100 nM
same,EC50,"[3]; Table 3, compounds 201-283",< 100 nM
"COC(C)(C)C(=O)N1C[C@H](C)N(c2ncnc3c2c(-c2ccccc2)cn3-c2cc(C#N)ccn2)C[C@H]1C [Compound 282, 2-(4-((2S,5R)-4-(2-methoxy-2-methylpropanoyl)-2,5-dimethylpiperazin-1-yl)-5-phenyl-7H-pyrrolo[2,3-d]pyrimidin-7-yl)isonicotinonitrile]",EC50,"[1]; Table 3, compounds 201-283",< 100 nM
same,EC50,"[2]; Table 3, compounds 201-283",< 100 nM
same,EC50,"[3]; Table 3, compounds 201-283",< 100 nM
"C[C@@H]1CN(c2ncnc3c2c(C2CCC2)cn3-c2cccc(F)c2)[C@@H](C)CN1C(=O)CC(C)(C)C(F)(F)F [Compound 251, 1-((2R,5S)-4-(5-cyclobutyl-7-(3-fluorophenyl)-7H-pyrrolo[2,3-d]pyrimidin-4-yl)-2,5-dimethylpiperazin-1-yl)-4,4,4-trifluoro-3,3-dimethylbutan-1-one]",EC50,"[1]; Table 3, compounds 201-283",100 to 500 nM
same,EC50,"[2]; Table 3, compounds 201-283",500 to 2000 nM
same,EC50,"[3]; Table 3, compounds 201-283",100 to 500 nM
"C[C@@H]1CN(c2ncnc3c2c(C2CC2)cn3-c2cccc(Cl)c2)[C@@H](C)CN1C(=O)C(C)(C)C [Compound 206, 1-((2R,5S)-4-(7-(3-chlorophenyl)-5-cyclopropyl-7H-pyrrolo[2,3-d]pyrimidin-4-yl)-2,5-dimethylpiperazin-1-yl)-2,2-dimethylpropan-1-one]",EC50,"[1]; Table 3, compounds 201-283",< 100 nM
same,EC50,"[2]; Table 3, compounds 201-283",100 to 500 nM
same,EC50,"[3]; Table 3, compounds 201-283",< 100 nM
"CC(C)C(=O)N1CCN(c2ncnc3c2c(N2CCCC2)cn3-c2cc(C#N)ccn2)[C@@H](C)C1 [Compound 144, (S)-2-(4-(4-isobutyryl-2-methylpiperazin-1-yl)-5-(pyrrolidin-1-yl)-7H-pyrrolo[2,3-d]pyrimidin-7-yl)isonicotinonitrile]",EC50,"[1]; Table 3, compounds 101-177",< 100 nM
same,EC50,"[2]; Table 3, compounds 101-177",100 to 500 nM
same,EC50,"[3]; Table 3, compounds 101-177",100 to 500 nM
"COC(C)(C)C(=O)N1C[C@H](C)N(c2ncnc3c2c(C(F)(F)F)cn3-c2cc(C#N)ccn2)C[C@H]1C [Compound 208, 2-(4-((2S,5R)-4-(2-methoxy-2-methylpropanoyl)-2,5-dimethylpiperazin-1-yl)-5-(trifluoromethyl)-7H-pyrrolo[2,3-d]pyrimidin-7-yl)isonicotinonitrile]",EC50,"[1]; Table 3, compounds 201-283",< 100 nM
same,EC50,"[2]; Table 3, compounds 201-283",500 to 2000 nM
same,EC50,"[3]; Table 3, compounds 201-283",< 100 nM
"C[C@@H]1CN(c2cn(-c3cc(C#N)ccn3)c3ncnc(N4CCN(C(=O)CC(C)(C)C)C[C@@H]4C)c23)CCO1 [Compound 165, 2-(4-((S)-4-(3,3-dimethylbutanoyl)-2-methylpiperazin-1-yl)-5-((R)-2-methylmorpholino)-7H-pyrrolo[2,3-d]pyrimidin-7-yl)isonicotinonitrile]",EC50,"[1]; Table 3, compounds 101-177",< 100 nM
same,EC50,"[2]; Table 3, compounds 101-177",100 to 500 nM
same,EC50,"[3]; Table 3, compounds 101-177",< 100 nM
"COC(C)(C)C(=O)N1CCN(c2ncnc3c2c(-c2ccccc2F)cn3-c2cc(C#N)ccn2)C[C@H]1C [Compound 266, (R)-2-(5-(2-fluorophenyl)-4-(4-(2-methoxy-2-methylpropanoyl)-3-methylpiperazin-1-yl)-7H-pyrrolo[2,3-d]pyrimidin-7-yl)isonicotinonitrile]",EC50,"[1]; Table 3, compounds 201-283",< 100 nM
same,EC50,"[2]; Table 3, compounds 201-283",100 to 500 nM
same,EC50,"[3]; Table 3, compounds 201-283",< 100 nM
"Cc1cc(C#N)cc(-n2cc(-c3ccccc3F)c3c(N4CCN(C(=O)C(C)C)C[C@@H]4C)ncnc32)n1 [Compound 143, (S)-2-(5-(2-fluorophenyl)-4-(4-isobutyryl-2-methylpiperazin-1-yl)-7H-pyrrolo[2,3-d]pyrimidin-7-yl)-6-methylisonicotinonitrile]",EC50,"[1]; Table 3, compounds 101-177",100 to 500 nM
same,EC50,"[2]; Table 3, compounds 101-177",100 to 500 nM
same,EC50,"[3]; Table 3, compounds 101-177",100 to 500 nM
